Measured values reported in patent EP0979827A1, “Peptides having tachykinin antagonist activity, a process for preparation thereof and pharmaceutical compositions comprising the same” (Boehringer Ingelheim Pharma KG, priority 1992, dated 1994).

Each compound was assayed against T1, NK1-Rezeptor (Substanz P-Rezeptor) (Homo sapiens, UniProt P25103) (assay: Receptor affinity for the NK1 receptor: displacement of 125I-labelled substance P on IM-9 cells). Conditions: humane Lymphoblastoma-Zellen (IM-9) mit klonierten NK1-Rezeptoren; Verdrängung von 125J-markierter Substanz P; read-out: IC50-Werte.
T1 construct: expressed in transfected cells; host or cells: human lymphoblastoma cells IM-9
T1 sequence (P25103 whole entry): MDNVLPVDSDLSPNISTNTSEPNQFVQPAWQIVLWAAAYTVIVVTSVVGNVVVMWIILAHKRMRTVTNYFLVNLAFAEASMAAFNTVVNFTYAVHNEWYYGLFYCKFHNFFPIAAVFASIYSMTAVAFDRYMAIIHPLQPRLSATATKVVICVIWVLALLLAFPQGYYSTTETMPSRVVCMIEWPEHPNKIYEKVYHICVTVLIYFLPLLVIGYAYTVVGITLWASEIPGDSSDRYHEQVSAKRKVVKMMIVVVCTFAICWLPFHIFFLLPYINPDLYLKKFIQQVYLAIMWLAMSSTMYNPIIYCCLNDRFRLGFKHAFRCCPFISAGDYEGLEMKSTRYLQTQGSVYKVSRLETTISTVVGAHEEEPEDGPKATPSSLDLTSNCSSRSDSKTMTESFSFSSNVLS
Type: binding
Procedure: Die Rezeptoraffinität zum NK1-Rezeptor (Substanz P-Rezeptor) wurde an humanen Lymphoblastoma-Zellen (IM-9) mit klonierten NK1-Rezeptoren bestimmt, wobei die Verdrängung von ^125J-markierter Substanz P gemessen wird. Die so erhaltenen IC50-Werte betragen: Verb. A : 60 nM Verb. B : 21 nM Verb. C : 90 nM Verb. D : 45 nM [drawing 26]

| IC50 [nM] | SMILES |
| --- | --- |
| 60 | CN(Cc1ccccc1)C(=O)[C@H](Cn1cccc1)NC(=O)[C@@H]1C[C@@H](O)CN1C(=O)c1c[nH]c2ccccc12 [Verb. A] |
| 21 | CN(Cc1ccccc1)C(=O)[C@H](COCc1ccccc1)NC(=O)[C@@H]1C[C@@H](O)CN1C(=O)c1c[nH]c2ccccc12 [Verb. B] |
| 45 | CN(Cc1ccccc1)C(=O)[C@H](CC1CCCCC1)NC(=O)[C@@H]1C[C@@H](O)CN1C(=O)c1c[nH]c2ccccc12 [Verb. D] |
